# According to patent US9623021B2, “Nuclear receptor binding agents” (GTX, Inc., priority 2007, dated 2017):
# Assays:
# [1] = tested on: SHP promoter; experiment: SHP promoter-luciferase in HEK-293 cells transfected with FXR and ER-β; assay type: cell-based; conditions: FXR and ER-β plasmids, FIG. 12E right panel
# Procedure: FIG. 12 depict the effect of ER-β ligand on PPAR-γ function through ligand binding domain (LBD). (A). HEK-293 cells were transfected with 0.25 μg PPRE-LUC, 5 ng CMV-renilla LUC and the indicated receptors (PPAR-γ and ER-β for the left panel and PPAR-α and ER-β for the right panel). The cells were treated 24 hrs after transfection with the indicated ligands and harvested 48 hrs after transfection and firefly luciferase activity was measured and normalized to renilla luciferase. (B). H475 in ER-β LBD is important for its function. H475 in ER-β LBD was mutated to alanine (A) using a site directed mutagenesis kit. Transactivation assay was performed as described in panel A in HEK-293 cells with a titration of ER-β ligands in wild type or ER-β H475A. (C). […] HEK-293 cells were transfected with 0.25 μg PPRE-LUC, 5 ng CMV-renilla LUC and 50 ng of the indicated receptors (PPAR-γ or PPAR-γ and wild type ER-β or PPAR-γ and ER-β H475A). The cells were treated 24 hrs after transfection with the indicated ligands and harvested 48 hrs after transfection and firefly luciferase activity was measured and normalized to renilla luciferase. (D). […] HepG2 cells were transfected with 0.25 μg PPRE-LUC, 5 ng CMV-renilla LUC, 0.5 μg PGC-1 or vector backbone and 100 ng of the indicated receptors (PPAR-γ or PPAR-γ and wild type ER-β or PPAR-γ and ER-β H475A for top panels and PPAR-α or PPAR-α and ER-β for bottom panel). The cells were treated 24 hrs after transfection with the indicated ligands and harvested 48 hrs after transfection and firefly luciferase activity was measured and normalized to renilla luciferase. (E). SHP-1 is an ER-β specific target gene. HEK-293 cells were transfected with 0.25 μg SHP-LUC, 5 ng CMV-renilla LUC and 50 ng of the indicated receptors (FXR and ER-α for the left panel and FXR and ER-β for the right panel). The cells were treated 24 hrs after transfection with the indicated ligands and harvested 48 hrs after transfection and firefly luciferase activity was measured and normalized to renilla luciferase. […]
# [2] = molecular target: ER-α (Rattus norvegicus (Rat), UniProt P06211); assay type: cell-based; conditions: 100 nM NRBA compared to 1 nM estradiol
# Outline: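 COS or 293 cells in phenol red-free medium with charcoal-stripped FBS, transfected with a 2×ERE firefly luciferase reporter, CMV-Renilla control and rat-cloned receptor. Compounds, estrogen or DHT added 24 h post transfection, alone or combined; firefly and Renilla luciferase read 48 h after transfection.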
# [3] = tested on: THP-1 macrophage cell adhesion to bEND-3 endothelial cells; experiment: Macrophage adhesion assay (LPS induced THP-1 adhesion to bEND-3 endothelial cells); assay type: cell-based; conditions: FIG. 13
# Procedure: To determine the anti-inflammatory effects of ER-β NRBAs in vitro, a macrophage adhesion assay was performed. Macrophages adhere to endothelial cells due to elevated levels of pro-inflammatory cytokines. This principle was used in this assay to determine the effect of one of the ER-β NRBAs on bacterial lipopolysaccharide (LPS) induced THP-1 macrophage cell adhesion to bEND-3 endothelial cells.
# [4] = tested on: ARPE-19 cells; experiment: Fluorescent detection of intracellular ROS in ARPE-19 cells (tBH oxidative stress); conditions: 150 μM tBH, FIG. 20B
# [5] = tested on: C-26 colon cancer cells; experiment: C-26 colon cancer cell proliferation (3H thymidine incorporation); assay type: cell-based; conditions: treated for 3 days, FIG. 22
# Procedure: The effects of treatment of an ER-β selective NRBA of this invention on cancer cell proliferation was examined using LNCaP prostate cancer cells and C-26 colon cancer cells. LNCaP or C-26 cells were plated in growth medium in 24 well and 6 well plates, respectively. LNCaP cells were treated for 6 days and C-26 cells were treated for 3 days at the indicated concentration. ^3H thymidine incorporation was measured at the end of treatment as an indicator of cell proliferation.
# [6] = tested on: high fat diet fed obese mice; experiment: High fat diet induced obesity model, treatment study (study 3); assay type: in vivo, C57BL6 male mice; conditions: high fat diet 6 weeks, then 30 mg/kg/day s.c.
# Procedure: For the treatment obesity study (where the animals were fed with high fat diet for six weeks prior to beginning drug treatment for 18 weeks), MRI scans were performed at weeks 0, 6, 12, 18 and 24.
# As the first two studies were designed to prevent obesity (i.e. animals were fed with a high fat diet and treated simultaneously), a subsequent study was conducted to evaluate the ability of 12u to affect body composition in mice that were already fed with the high fat diet and were obese. Mice were divided into three groups with one group fed with normal diet (control) and the other two groups fed with the high fat diet for 6 weeks. […] All the animals were maintained in their respective diets during the entire course of the study.
# [7] = tested on: LNCaP cells and human prostate stromal cells xenograft; experiment: LNCaP-stromal cell xenograft tumor growth; assay type: in vivo, nude mice; conditions: 30 mg/kg/day for 21 days, by day 21
# Procedure: Prostate tumor xenografts were established with LNCaP cells and human prostate stromal cells in nude mice to establish the in vivo anti-proliferative effects of these ER-β NRBAs. A 4:1 ratio (based on cell number) of LNCaP:stroma cells was injected subcutaneously in nude mice and allowed to grow until they attained 100 mm^3 in volume, as measured by calipers. […] Tumor volumes were measured twice a week and percent tumor volume calculated, after 10, 14 and 21 days.
# [8] = tested on: PPAR-γ; experiment: PPAR-γ transactivation (PPRE-LUC) in HEK-293 cells co-transfected with ER-β; assay type: cell-based; conditions: FIG. 12A left panel
# Procedure: FIG. 12 depict the effect of ER-β ligand on PPAR-γ function through ligand binding domain (LBD). (A). HEK-293 cells were transfected with 0.25 μg PPRE-LUC, 5 ng CMV-renilla LUC and the indicated receptors (PPAR-γ and ER-β for the left panel and PPAR-α and ER-β for the right panel). The cells were treated 24 hrs after transfection with the indicated ligands and harvested 48 hrs after transfection and firefly luciferase activity was measured and normalized to renilla luciferase. (B). H475 in ER-β LBD is important for its function. H475 in ER-β LBD was mutated to alanine (A) using a site directed mutagenesis kit. Transactivation assay was performed as described in panel A in HEK-293 cells with a titration of ER-β ligands in wild type or ER-β H475A. (C). […] The cells were treated 24 hrs after transfection with the indicated ligands and harvested 48 hrs after transfection and firefly luciferase activity was measured and normalized to renilla luciferase. […] The cells were treated 24 hrs after transfection with the indicated ligands and harvested 48 hrs after transfection and firefly luciferase activity was measured and normalized to renilla luciferase. […] The cells were treated 24 hrs after transfection with the indicated ligands and harvested 48 hrs after transfection and firefly luciferase activity was measured and normalized to renilla luciferase. […]
compound,measurement,setting,value
"O=c1c2c(O)cc(O)cc2c(Br)cn1-c1ccc(O)cc1 [Compound 12u, 4-bromo-6,8-dihydroxy-2-(4-hydroxyphenyl)isoquinolin-1(2H)-one]",SHP activity,[1],neither of the ligands activated SHP
same,"Estradiol activity at 100 nM, ER-α",[2],62%
same,adhesion of 3H labeled THP-1 cells to bEND-3 cells,[3],significantly inhibited the adhesion
same,prevention of ROS formation / oxidative damage,[4],did not seem to have any effect
same,growth of C-26 colon cancer cells,[5],significantly inhibited the growth
same,body weight,[6]; FIG. 10A,prevented further gains in body weight
same,body fat increase (MRI),[6]; FIG. 10B,reduced
same,tumor growth (percent tumor volume),[7],inhibited the growth of tumor significantly
same,troglitazone-induced PPAR-γ activity,[8],partially inhibited
